From patent US20250197374A1, “WEE1 DEGRADING COMPOUNDS AND USES THEREOF” (BRISTOL-MYERS SQUIBB COMPANY, priority 2023, published 2025)

Assays:
Format in all cases: cell-based
[1] = target: T1, WEE1 (Homo sapiens, UniProt P30291+Q96SW2); assay: WEE1-ePL degradation assay (293T-LentiX, InCELL Hunter luminescence, 4 hr); settings: for DC50: LentiX-HEK293T cells expressing WEE1-ePL, 4 hr incubation, read-out: 293T-LentiX WEE1-ePL Degradation 4 hr EC50; for 293T-LentiX WEE1-ePL Degradation 4 hr YMin (%): lower limit of fit, % of DMSO control signal remaining
T1 construct: C-terminal ePL-tagged (DiscoverX, Fremont, CA) full-length WEE1 expression construct; expressed in transfected cells; host or cells: LentiX-HEK293T (Invitrogen), lentivirally transduced; the cells also over-express GSPT1-GN
Outline: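 EC50 comes from a four-parameter logistic fit of ePL luminescence (InCELL Hunter), with DMSO control defining Ymax. Compounds ran as 10-point 3-fold dilutions from 1 or 10 µM for 4 h at 37 °C. Cells were HEK293T-LentiX with ePL-tagged full-length WEE1 and over-expressed Cereblon-resistant GSPT1-GN.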

[2] = tested on: MDA-MB-231 cells; assay: MDA-MB-231 cell proliferation assay (Cell-Titer-Glo, 120 hr); settings: for EC50: Homo sapiens, MDA-MB-231, 120 h, read-out: MDA-MB 231 Cell Prolif. 120 hr EC50; for MDA-MB 231 Cell Prolif. 120 hr YMin (%): minimal percent of DMSO control observed
Outline: (§1)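 Growth inhibition was read as CellTiter-Glo luminescence after 120 h at 37 °C in RPMI/10% FBS, with 400 MKN45 or 800 MDA-MB-231 cells seeded per well. Compounds were tested in 10-point half-log series starting at 1 or 10 uM (0.1% DMSO), in triplicate for MKN45 and duplicate for MDA-MB-231. EC50 values are four-parameter fits to %DMSO control, and Ymin-obs is the minimal observed %DMSO.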

[3] = tested on: MKN45 cells; assay: MKN45 cell proliferation assay (Cell-Titer-Glo, 120 hr); settings: for EC50: Homo sapiens, MKN-45, 120 h, read-out: MKN45 Cell Prolif. 120 hr EC50; for MKN45 Cell Prolif. 120 hr YMin (%): minimal percent of DMSO control observed
Outline: as §1

T1 sequence (P30291 whole entry): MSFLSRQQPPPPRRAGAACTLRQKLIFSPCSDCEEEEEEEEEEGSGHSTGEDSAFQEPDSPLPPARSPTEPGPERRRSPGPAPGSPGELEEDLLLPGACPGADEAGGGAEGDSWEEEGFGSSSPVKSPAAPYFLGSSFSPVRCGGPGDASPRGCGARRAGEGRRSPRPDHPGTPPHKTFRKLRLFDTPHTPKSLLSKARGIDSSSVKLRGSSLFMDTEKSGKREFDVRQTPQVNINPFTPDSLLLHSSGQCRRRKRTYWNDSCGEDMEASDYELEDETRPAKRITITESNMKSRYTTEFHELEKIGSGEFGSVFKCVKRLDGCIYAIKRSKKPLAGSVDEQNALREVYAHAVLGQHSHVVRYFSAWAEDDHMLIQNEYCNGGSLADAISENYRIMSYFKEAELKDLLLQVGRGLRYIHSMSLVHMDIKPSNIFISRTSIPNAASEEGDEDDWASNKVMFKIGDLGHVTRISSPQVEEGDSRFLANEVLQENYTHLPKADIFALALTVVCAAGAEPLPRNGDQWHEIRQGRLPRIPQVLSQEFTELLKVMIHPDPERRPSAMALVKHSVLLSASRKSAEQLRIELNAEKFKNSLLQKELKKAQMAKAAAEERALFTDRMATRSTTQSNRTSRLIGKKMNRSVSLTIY
T1 sequence (Q96SW2 whole entry): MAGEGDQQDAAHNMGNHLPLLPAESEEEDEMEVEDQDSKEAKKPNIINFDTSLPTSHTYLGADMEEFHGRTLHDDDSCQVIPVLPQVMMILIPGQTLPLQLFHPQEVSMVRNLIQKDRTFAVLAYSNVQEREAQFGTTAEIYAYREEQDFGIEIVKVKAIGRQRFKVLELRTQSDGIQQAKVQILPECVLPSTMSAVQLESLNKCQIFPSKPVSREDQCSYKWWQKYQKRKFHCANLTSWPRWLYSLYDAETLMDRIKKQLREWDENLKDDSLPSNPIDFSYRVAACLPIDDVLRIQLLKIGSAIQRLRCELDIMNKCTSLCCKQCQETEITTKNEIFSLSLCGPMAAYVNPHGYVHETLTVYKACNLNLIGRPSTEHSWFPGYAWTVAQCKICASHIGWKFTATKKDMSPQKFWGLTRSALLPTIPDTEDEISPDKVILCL
T1 sequence (Q16531 whole entry partner): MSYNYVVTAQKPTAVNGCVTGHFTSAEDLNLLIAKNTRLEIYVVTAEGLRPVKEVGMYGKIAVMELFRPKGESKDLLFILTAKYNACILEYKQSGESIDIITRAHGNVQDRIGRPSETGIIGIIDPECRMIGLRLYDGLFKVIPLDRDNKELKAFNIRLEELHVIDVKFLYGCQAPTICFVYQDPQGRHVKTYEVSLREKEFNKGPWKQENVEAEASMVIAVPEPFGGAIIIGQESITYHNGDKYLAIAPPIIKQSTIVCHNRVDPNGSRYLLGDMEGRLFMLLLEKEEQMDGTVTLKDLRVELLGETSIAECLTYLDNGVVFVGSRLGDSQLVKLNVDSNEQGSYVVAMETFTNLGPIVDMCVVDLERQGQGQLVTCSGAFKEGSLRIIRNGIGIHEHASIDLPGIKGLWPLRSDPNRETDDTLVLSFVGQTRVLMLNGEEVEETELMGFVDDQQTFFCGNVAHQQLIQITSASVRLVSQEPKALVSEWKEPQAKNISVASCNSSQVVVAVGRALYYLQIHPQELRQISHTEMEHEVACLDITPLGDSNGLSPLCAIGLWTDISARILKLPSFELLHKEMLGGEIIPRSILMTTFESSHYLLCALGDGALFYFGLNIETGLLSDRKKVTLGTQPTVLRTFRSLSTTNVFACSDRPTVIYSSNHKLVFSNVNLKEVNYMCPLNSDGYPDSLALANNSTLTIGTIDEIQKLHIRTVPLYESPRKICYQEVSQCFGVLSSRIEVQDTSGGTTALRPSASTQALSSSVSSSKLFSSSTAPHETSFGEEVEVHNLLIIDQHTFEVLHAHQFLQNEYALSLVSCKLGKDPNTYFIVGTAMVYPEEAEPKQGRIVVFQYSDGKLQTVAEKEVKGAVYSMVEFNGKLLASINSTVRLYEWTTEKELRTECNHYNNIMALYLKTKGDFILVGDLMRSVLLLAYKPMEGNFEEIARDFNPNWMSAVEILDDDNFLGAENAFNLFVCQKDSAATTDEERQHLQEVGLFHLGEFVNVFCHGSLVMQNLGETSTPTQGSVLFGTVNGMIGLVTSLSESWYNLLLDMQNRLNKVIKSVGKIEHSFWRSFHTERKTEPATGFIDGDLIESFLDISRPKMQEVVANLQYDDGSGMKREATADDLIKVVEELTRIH

Compound | DC50 [1] [nM] | 293T-LentiX WEE1-ePL Degradation 4 hr YMin (%) [1] [%] | EC50 [2] [nM] | MDA-MB 231 Cell Prolif. 120 hr YMin (%) [2] [%] | EC50 [3] [nM] | MKN45 Cell Prolif. 120 hr YMin (%) [3] [%]
COC[C@@H]1CN(Cc2cc(F)c3nc(C4CN(CC(F)(F)F)C4)ncc3c2)C[C@H]1Oc1ccc2c(c1)CN([C@H]1CCC(=O)NC1=O)C2=O [Example 46, (3S)-3-(5-{[(3S,4S)-1-({8-fluoro-2-[1-(2,2,2-trifluoroethyl)azetidin-3-yl]quinazolin-6-yl}methyl)-4-(methoxymethyl)pyrrolidin-3-yl]oxy}-1-oxo-2,3-dihydro-1H-isoindol-2-yl)piperidine-2,6-dione] | 4 | 26.2 | 18 | 17.7 | 2 | 8.7
COC[C@@H]1CN(Cc2cc(F)c3nc(N4C[C@H]5C[C@@H](C4)O5)ccc3c2)C[C@H]1Oc1ccc2c(c1)CN([C@H]1CCC(=O)NC1=O)C2=O [Example 47, (S)-3-(5-(((3S,4S)-1-((2-((1R,5S)-6-oxa-3-azabicyclo[3.1.1]heptan-3-yl)-8-fluoroquinolin-6-yl)methyl)-4-(methoxymethyl)pyrrolidin-3-yl)oxy)-1-oxoisoindolin-2-yl)piperidine-2,6-dione] | 1 | 28.7 | 34 | 30.0 | 1 | 9.8
COC[C@@H]1CN(Cc2cc3ccc(N4CCOCC4)c(F)c3cn2)C[C@H]1Oc1ccc2c(c1)CN([C@H]1CCC(=O)NC1=O)C2=O [Example 48, (3S)-3-(5-{[(3S,4S)-1-{[8-fluoro-7-(morpholin-4-yl)isoquinolin-3-yl]methyl}-4-(methoxymethyl)pyrrolidin-3-yl]oxy}-1-oxo-2,3-dihydro-1H-isoindol-2-yl)piperidine-2,6-dione] | – | 22.9 | 4 | 22.0 | 1 | 7.8
COC[C@@H]1CN(Cc2cc(F)c3nc(C4CC(C)(C)OC(C)(C)C4)ccc3c2)C[C@H]1Oc1ccc2c(c1)CN([C@H]1CCC(=O)NC1=O)C2=O [Example 53, (3S)-3-(5-{[(3S,4S)-1-{[8-fluoro-2-(2,2,6,6-tetramethyloxan-4-yl)quinolin-6-yl]methyl}-4-(methoxymethyl)pyrrolidin-3-yl]oxy}-1-oxo-2,3-dihydro-1H-isoindol-2-yl)piperidine-2,6-dione] | – | 27.9 | 8 | 13.4 | – | 10.5
COC[C@@H]1CN(Cc2cc(F)c3nc(C45CCC(O)(CC4)CC5)ccc3c2)C[C@H]1Oc1ccc2c(c1)CN([C@H]1CCC(=O)NC1=O)C2=O [Example 55, (3S)-3-(5-{[(3S,4S)-1-[(8-fluoro-2-{4-hydroxybicyclo[2.2.2]octan-1-yl}quinolin-6-yl)methyl]-4-(methoxymethyl)pyrrolidin-3-yl]oxy}-1-oxo-2,3-dihydro-1H-isoindol-2-yl)piperidine-2,6-dione] | – | 27.9 | 16 | 22.6 | – | 10.9
COC[C@@H]1CN(Cc2cc(F)c3nc(C45CC(C(C)(C)O)(C4)C5)ccc3c2)C[C@H]1Oc1ccc2c(c1)CN([C@H]1CCC(=O)NC1=O)C2=O [Example 56, (3S)-3-(5-{[(3S,4S)-1-({8-fluoro-2-[3-(2-hydroxypropan-2-yl)bicyclo[1.1.1]pentan-1-yl]quinolin-6-yl}methyl)-4-(methoxymethyl)pyrrolidin-3-yl]oxy}-1-oxo-2,3-dihydro-1H-isoindol-2-yl)piperidine-2,6-dione] | – | 29.9 | 19 | 25.5 | – | 10.0
COC[C@@H]1CN(Cc2cc(F)c3nc(C(=O)N(C)C)ccc3c2)C[C@H]1Oc1ccc2c(c1)CN([C@H]1CCC(=O)NC1=O)C2=O [Example 58, 6-{[(3S,4S)-3-({2-[(3S)-2,6-dioxopiperidin-3-yl]-1-oxo-2,3-dihydro-1H-isoindol-5-yl}oxy)-4-(methoxymethyl)pyrrolidin-1-yl]methyl}-8-fluoro-N,N-dimethylquinoline-2-carboxamide] | 5 | 31.1 | 213 | 28.1 | 6 | 11.2
COC[C@@H]1CN(Cc2cc(F)c3nc(N4CCCC4=O)ccc3c2)C[C@H]1Oc1ccc2c(c1)CN([C@H]1CCC(=O)NC1=O)C2=O [Example 59, (3S)-3-(5-{[(3S,4S)-1-{[8-fluoro-2-(2-oxopyrrolidin-1-yl)quinolin-6-yl]methyl}-4-(methoxymethyl)pyrrolidin-3-yl]oxy}-1-oxo-2,3-dihydro-1H-isoindol-2-yl)piperidine-2,6-dione] | 1 | 29.1 | 61 | 12.1 | 1 | 10.7
COC[C@@H]1CN(Cc2cc(F)c3nc(C4(O)CCOCC4)ccc3c2)C[C@H]1Oc1ccc2c(c1)CN([C@H]1CCC(=O)NC1=O)C2=O [Example 60, (3S)-3-(5-{[(3S,4S)-1-{[8-fluoro-2-(4-hydroxyoxan-4-yl)quinolin-6-yl]methyl}-4-(methoxymethyl)pyrrolidin-3-yl]oxy}-1-oxo-2,3-dihydro-1H-isoindol-2-yl)piperidine-2,6-dione] | 1 | 27.4 | 54 | 33.7 | 3 | 11.7
COC[C@@H]1CN(Cc2cc(F)c3nc(N4CCCC4=O)ncc3c2)C[C@H]1Oc1ccc2c(c1)CN([C@H]1CCC(=O)NC1=O)C2=O [Example 61, (3S)-3-(5-{[(3S,4S)-1-{[8-fluoro-2-(2-oxopyrrolidin-1-yl)quinazolin-6-yl]methyl}-4-(methoxymethyl)pyrrolidin-3-yl]oxy}-1-oxo-2,3-dihydro-1H-isoindol-2-yl)piperidine-2,6-dione] | 25 | 29.3 | 98 | 41.3 | 9 | 12.0
COC[C@@H]1CN(Cc2cc(F)c3nc(C4(O)CCOCC4)ncc3c2)C[C@H]1Oc1ccc2c(c1)CN([C@H]1CCC(=O)NC1=O)C2=O [Example 62, (3S)-3-(5-{[(3S,4S)-1-{[8-fluoro-2-(4-hydroxyoxan-4-yl)quinazolin-6-yl]methyl}-4-(methoxymethyl)pyrrolidin-3-yl]oxy}-1-oxo-2,3-dihydro-1H-isoindol-2-yl)piperidine-2,6-dione] | 4 | 31.6 | 100 | 33.0 | 7 | 11.9
COC[C@@H]1CN(Cc2cc(F)c3nc(N4CCC(O)CC4)ncc3c2)C[C@H]1Oc1ccc2c(c1)CN([C@H]1CCC(=O)NC1=O)C2=O [Example 63, (3S)-3-(5-{[(3S,4S)-1-{[8-fluoro-2-(4-hydroxypiperidin-1-yl)quinazolin-6-yl]methyl}-4-(methoxymethyl)pyrrolidin-3-yl]oxy}-1-oxo-2,3-dihydro-1H-isoindol-2-yl)piperidine-2,6-dione] | 3 | 29.2 | 42 | 22.6 | 2 | 9.2
COC[C@@H]1CN(Cc2cc(F)c3nc(N4CCC(O)CC4)ccc3c2)C[C@H]1Oc1ccc2c(c1)CN([C@H]1CCC(=O)NC1=O)C2=O [Example 64, (S)-3-(5-(((3S,4S)-1-((8-fluoro-2-(4-hydroxypiperidin-1-yl)quinolin-6-yl)methyl)-4-(methoxymethyl)pyrrolidin-3-yl)oxy)-1-oxoisoindolin-2-yl)piperidine-2,6-dione] | 1 | 28.5 | 23 | 17.1 | 2 | 8.8
